This note sets out measurements from patent US20030170791A1, “Gene family encoding membrane steroid receptors” (priority 2001, published 2003).

In experiment [1] the target is T1, solubilized seatrout ovarian membrane progestin (20β-S) receptor (Cynoscion nebulosus, UniProt Q801D8).
T1 sequence (Q801D8 1-352): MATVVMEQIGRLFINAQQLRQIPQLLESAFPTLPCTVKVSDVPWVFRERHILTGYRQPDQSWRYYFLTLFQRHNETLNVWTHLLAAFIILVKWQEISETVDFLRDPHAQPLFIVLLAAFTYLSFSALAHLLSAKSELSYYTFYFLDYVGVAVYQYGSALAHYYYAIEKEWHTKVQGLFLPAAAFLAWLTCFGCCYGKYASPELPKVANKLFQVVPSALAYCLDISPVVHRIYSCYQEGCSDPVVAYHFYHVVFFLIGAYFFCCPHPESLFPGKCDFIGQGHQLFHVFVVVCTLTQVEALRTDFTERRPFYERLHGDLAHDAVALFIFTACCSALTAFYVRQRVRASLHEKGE
In words: [3H]20β-S binding to solubilized seatrout ovarian membrane progestin receptor (DCC assay; saturation, Scatchard, association/dissociation). Also noted: species or system spotted seatrout (Cynoscion nebulosus). On the procedure:
20β-S receptor binding in solubilized membrane preparations was assayed using dextran-coated charcoal (DCC) to separate bound from steroid. The incubation conditions were similar to those used for the intact membrane preparation with the exception that 100-fold excess unlabeled 20β-S was used to determine non-specific binding. The incubation was terminated by adding 1-ml ice-cold DCC suspension (0.1 g dextran T-70 and 1 g charcoal per 100 ml HA buffer). The tubes were vortexed and the reaction mixture was incubated on ice for 5 minutes to absorb free steroid followed by centrifugation at 3200 g for 10 minutes at 4° C. The radioactivities of the filters or supernatants were measured using Beckman LS 6000SC Scintillation Counter (Beckman Instruments Inc., Houston, Tex.).
Saturation kinetics of [^3H]20β-S binding to the solubilized membrane receptor was conducted with six radiolabeled 20β-S concentrations (range 0.25-10 nM) in the absence (total binding) or presence of 100-fold excess cold steroid (non-specific binding). The dissociation constant (Kd) and receptor concentration (Bmax) were calculated from Scatchard plots. One point assays were conducted with 5 nM radiolabeled 20β-S with or without 100-fold excess unlabeled steroid.
The rate of 20β-S association to the solubilized receptor was determined by measuring the specific binding of [^3H]20β-S after-incubation periods of 30 seconds to 24 hours. The rate of dissociation was determined by first allowing samples to equilibrate with tracer for 30 minutes before the addition of 100-fold excess unlabeled 20β-S and incubation for periods of 30 seconds to 24 hours.

Experiment [2] addresses T2, seatrout recombinant mPR produced in E. coli (Cynoscion nebulosus, UniProt Q801D8).
T2 construct: The coding region of the steroid membrane receptor was amplified by PCR from a full-length cDNA plasmid clone; made in house; host or cells: E. coli BL21 (DE3), pET vector
T2 sequence (Q801D8 1-352): T1 sequence (Q801D8 1-352)
In words: Steroid binding to recombinant seatrout mPR produced in E. coli (single-point, competition, saturation, kinetics). To be noted: for specific binding of 3H-steroid (steroid specificity): single-point assay, 10 nM 3H-steroid with or without 100-fold excess non-radioactive steroid. On the procedure:
The cloned membrane progestin receptor was expressed in E. coli and the binding of the recombinant protein to steroids was analyzed by a radiolabeled receptor assay.
(§1) The PCR products were purified by electrophoresis using low-melting gel and a QIAquick Gel Extraction Kit. The purified PCR product was ligated into a pET expression vector. The pET vector was transformed into BL21 (DE3) E. coli cells. The positive clones were purified and sequenced. The plasmid without an insert was used as control. Recombinant protein was induced with IPTG at 25° C. and soluble recombinant proteins were extracted and analyzed.
Initially, steroid specificity of the recombinant receptor was determined from single-point competition assays using 10 nM ^3H-steroid in the absence (total binding) or presence of 100-fold excess non-radioactive steroid (nonspecific binding, FIG. 8).
Full competition curves were generated with 10 nM 3H-progesterone (total binding) or in combination with 1 nM-10 μM of various steroids (FIG. 8).
(§2) Saturation kinetics of H^3-progesterone binding to the recombinant receptor were conducted with 7 progesterone concentrations (range 0.5-40 nM) in the absence (total binding) or presence of 1 μM excess cold steroid (nonspecific binding, FIG. 11).

The target in experiment [3] is T3, recombinant human kidney mSR (Homo sapiens, UniProt Q9NXK6).
T3 construct: The coding region of the steroid membrane receptor was amplified by PCR from a full-length cDNA plasmid clone; made in house; host or cells: E. coli
T3 sequence (Q9NXK6 1-330): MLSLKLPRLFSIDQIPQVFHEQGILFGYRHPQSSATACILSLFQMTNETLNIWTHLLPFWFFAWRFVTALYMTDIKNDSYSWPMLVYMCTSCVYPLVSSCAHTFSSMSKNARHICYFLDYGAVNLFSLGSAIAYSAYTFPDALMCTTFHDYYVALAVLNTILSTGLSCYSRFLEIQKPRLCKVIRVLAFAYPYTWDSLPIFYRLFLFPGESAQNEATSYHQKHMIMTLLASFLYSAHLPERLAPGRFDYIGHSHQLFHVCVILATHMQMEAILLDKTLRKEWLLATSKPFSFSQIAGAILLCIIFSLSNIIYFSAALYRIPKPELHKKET
The experiment is described as follows: 3H-progesterone binding to recombinant human kidney mSR (saturation, kinetics, competition). To be noted: for displacement of 3H-progesterone: competition curves, 10 nM 3H-progesterone, 1 nM-10 μM competitor. As to the method: (§3) Receptor Binding of Human Membrane Steroid Receptors. Mouse testicular and human testicular and kidney mSR were expressed in E. coli and binding of the recombinant proteins to steroids was studied. The membrane steroid receptor from human brain was not expressed since the clone only contains part of the coding region.
Binding Characters of Human Kidney Membrane Steroid Receptor. Saturation kinetics of ^3H-progesterone binding to the recombinant human kidney mSR was conducted with 7 progesterone concentrations (range 0.5-40 nM) in the absence (total binding) or presence of 1 μM excess cold steroid (nonspecific binding, FIG. 23).
The specific binding dissociated quickly with a t1/2 dissociation of 2 minutes (FIG. 24).
Full competition curves were generated with 10 nM 3 H-progesterone (total binding) or in combination with 1 nM-10 μM of various steroids (FIG. 25, 26). […] This binding was very specific for 21 carbon steroids lacking a functional group at the 11 position.

Another experiment deals with E. coli control proteins. In words: Steroid binding to E. coli control proteins (vector without insert). To be noted: for binding to the control proteins: single-point assay, 10 nM 3H-steroid. On the procedure: as §1
Initially, steroid specificity of the recombinant receptor was determined from single-point competition assays using 10 nM ^3H-steroid in the absence (total binding) or presence of 100-fold excess non-radioactive steroid (nonspecific binding, FIG. 8). […] No binding of P4 and 17-P to the control proteins was observed (FIG. 7).
as §2

Experiment [4] deals with T4, recombinant mouse testicular mSR (Mus musculus, UniProt Q80ZE5).
T4 construct: The coding region of the steroid membrane receptor was amplified by PCR from a full-length cDNA plasmid clone; made in house; host or cells: E. coli
T4 sequence (Q80ZE5 1-354): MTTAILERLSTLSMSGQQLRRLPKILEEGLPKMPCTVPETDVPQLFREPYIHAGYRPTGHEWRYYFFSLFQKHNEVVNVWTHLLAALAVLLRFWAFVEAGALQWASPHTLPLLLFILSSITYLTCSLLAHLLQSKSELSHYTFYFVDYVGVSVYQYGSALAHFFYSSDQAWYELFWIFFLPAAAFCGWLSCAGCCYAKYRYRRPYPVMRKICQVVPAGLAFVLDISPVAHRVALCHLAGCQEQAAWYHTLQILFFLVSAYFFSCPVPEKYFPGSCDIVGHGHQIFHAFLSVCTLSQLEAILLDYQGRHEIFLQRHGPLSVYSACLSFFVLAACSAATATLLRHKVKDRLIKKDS
In words: Saturation/Scatchard analysis of 3H-progesterone binding to recombinant mouse testicular mSR. To be noted: Scatchard analysis. As to the method:
as §3
Binding Characteristics of Mouse Testicular Membrane Steroid Receptor. Saturation kinetics of ^3H-progesterone binding to the recombinant mouse testicular mSR was conducted with 7 progesterone concentrations (range 0.5-40 nM) in the absence (total binding) or presence of excess cold steroid (nonspecific binding, FIG. 21).

For experiment [5], the target named is T5, recombinant human testicular mSR (Homo sapiens, UniProt Q86WK9).
T5 construct: The coding region of the steroid membrane receptor was amplified by PCR from a full-length cDNA plasmid clone; made in house; host or cells: E. coli
T5 sequence (Q86WK9 1-346): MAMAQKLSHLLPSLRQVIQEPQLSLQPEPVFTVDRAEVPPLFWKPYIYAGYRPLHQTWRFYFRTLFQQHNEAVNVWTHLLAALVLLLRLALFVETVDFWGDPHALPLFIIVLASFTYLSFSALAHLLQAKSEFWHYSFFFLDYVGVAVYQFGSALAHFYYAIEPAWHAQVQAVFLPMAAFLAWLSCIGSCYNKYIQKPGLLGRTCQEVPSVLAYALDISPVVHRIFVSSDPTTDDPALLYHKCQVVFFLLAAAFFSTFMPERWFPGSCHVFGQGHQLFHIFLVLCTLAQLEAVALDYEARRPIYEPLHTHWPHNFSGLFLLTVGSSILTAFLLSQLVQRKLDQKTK
In words: Saturation/Scatchard analysis of 3H-progesterone binding to recombinant human testicular mSR. As to conditions: Scatchard analysis. As to the method:
as §3
Binding Characteristics of Human Testicular Membrane Steroid Receptor. Saturation kinetics of ^3H-progesterone binding to the recombinant human testicular mSR was conducted with 7 progesterone concentrations (range 0.5-40 nM) in the absence (total binding) or presence of 1 μM excess cold steroid (nonspecific binding, FIG. 22).

Molecule `CC12CCC(=O)C=C1CCC1C2CCC2(C)C1CCC2(O)C(O)CO` (stereo not drawn) [20β-S, 17,20β,21-trihydroxy-4-pregnen-3-one] gave a Bmax in experiment [1] (Scatchard analysis, [3H]20β-S) of 0.204 pmol g^−1 ovary. The “time to full displacement” value in experiment [1] (after 100-fold excess unlabeled 20β-S) is no more than 20 min. The “time to reach saturation of binding” value in experiment [1] (equilibrium study) is no more than 15 min. In experiment [1] (saturation analysis), the “concentration at which saturation was achieved” value is given as “approximately 10 nM”. For the same molecule, the “specific binding of 3H-steroid (steroid specificity)” value (shortened to “specific binding of 3H-steroid”) in experiment [2] is recorded as “did not show any specific binding”.

`C[C@]12CCC(=O)C[C@@H]1CC[C@@H]1[C@@H]2CC[C@]2(C)[C@@H](O)CC[C@@H]12` [5α-dihydrotestosterone]: the “specific binding of 3H-steroid” value in experiment [2] is listed as “no specific binding”.

Consider `CC(=O)[C@@]1(O)CC[C@H]2[C@@H]3CCC4=CC(=O)CC[C@]4(C)[C@H]3CC[C@@]21C` [17-P, 17-hydroxyprogesterone], for which the “displacement of 3H-progesterone” value in experiment [3] is listed as “equipotent with P4”; in experiment [2] (competition curves, 10 nM 3H-progesterone, 1 nM-10 μM competitor), “equipotent with P4”. In addition, the “specific binding of 3H-steroid” value in experiment [2] is given as “high affinity”. In the experiment with E. coli control proteins, the “binding to the control proteins” value is “No binding”.

With `C[C@]12CC(=O)[C@H]3[C@@H](CCC4=CC(=O)CC[C@@]43C)[C@@H]1CC[C@@H]2O` [11-ketotestosterone], the “specific binding of 3H-steroid” value in experiment [2] is on record as “no specific binding”.

Consider `C[C@]12CC[C@H]3[C@@H](CCC4=CC(=O)CC[C@@]43C)[C@@H]1CC[C@@H]2O` [testosterone], for which the “specific binding of 3H-steroid” value in experiment [2] was “no specific binding”.

Turning to `C[C@@H](O)[C@@]1(O)CC[C@H]2[C@@H]3CCC4=CC(=O)CC[C@]4(C)[C@H]3CC[C@@]21C` [17,20β-P, 17,20β-dihydroxy-4-pregnen-3-one], the “specific binding of 3H-steroid” value in experiment [2] is reported as “did not show any specific binding”.

Turning to Vitamin D, in experiment [3], the “displacement of 3H-progesterone” value is “no displacement”.

On to `CC(=O)[C@H]1CC[C@H]2[C@@H]3CCC4=CC(=O)CC[C@]4(C)[C@H]3CC[C@]12C` [progesterone], for which the Bmax was found to be 0.304 nM in experiment [4]; 0.54 nM in experiment [3] (Scatchard analysis); 0.47 nM in experiment [5]; 0.49 nM in experiment [2] (Scatchard analysis, 3H-progesterone). Also, the Kd (as a rule, a measure of binding affinity in units of concentration) was determined as 29 nM in experiment [4] (3H-progesterone 0.5-40 nM); 28 nM in experiment [3] (Scatchard analysis, 3H-progesterone 0.5-40 nM); 37 nM in experiment [5] (3H-progesterone 0.5-40 nM); 30 nM in experiment [2]. The “specific binding of 3H-steroid” value in experiment [2] is recorded as “Highest specific binding”. Further, the “specific binding to E. coli control proteins” value in the experiment with E. coli control proteins (saturation analysis, 3H-progesterone) was “no specific binding”. The “binding to the control proteins” value in the experiment on E. coli control proteins is reported as “No binding”.

Take `CC[C@H](C)[C@@H]1NC(=O)[C@H](Cc2ccc(O)cc2)NC(=O)[C@@H](N)CSSC[C@@H](C(=O)N2CCC[C@H]2C(=O)N[C@@H](CC(C)C)C(=O)NCC(N)=O)NC(=O)[C@H](CC(N)=O)NC(=O)[C@H](CCC(N)=O)NC1=O` [oxytocin]: the “displacement of 3H-progesterone” value in experiment [3] is reported as “no displacement”.
